“Also recorded” adds a separate entry of the source.
Experiments:
B16F10 cells = assay: RT-qPCR of interferon stimulated genes in B16F10 cells; type: cell-based, murine; details: 0.1-1 μM, 7 days
Description: (§1) Total RNA was extracted using the RNeasy Mini Kit (Qiagen) according to the manufacturer's protocol. Extracted RNA (1 μg) was transcribed into cDNA using SuperScript IV VILO master mix with ezDNase enzyme according to the manufacturer's protocol (ThermoFisher). The cDNA samples were diluted and used for real-time quantitative PCR (RT-qPCR). Taqman master mix (ThermoFisher) and gene-specific primers were used for PCR amplification and detection using a QuantStudio 6 Flex Real-Time PCR System (ThermoFisher). The RT-qPCR data were normalized to GAPDH and HPRT (housekeeping genes) and presented as fold change of gene expression in the test sample compared to the control sample.

[1] = system: SKBR3, MDA-MB-157 and MDA-MB-436 cells; assay: RT-qPCR of ISGs in human tumor cells; type: cell-based; details: 2 μM, 7 days
Description: RT-qPCR analysis of selected ISGs and IFNs in human SKBR3, MDA-MB-157 and MDA-MB-436 cells treated with vehicle or CARM1 inhibitor (2 μM) for 7 days (n=3/group).
as §1

B16F10 tumor cells = assay: dsDNA damage, γH2AX immunofluorescence; type: cell-based, murine; details: B16F10 melanoma cells
Description: Representative immunofluorescence images (left) of γH2AX antibody labeling (purple); nuclei labeled with DAPI. Quantification of number of γH2AX foci/nucleus (right). Data are shown as mean±SEM, ***p<0.001, by unpaired two-sided Mann-Whitney test. Scale bar—[…].
Cells were grown on glass coverslips, washed with PBS and fixed in 4% paraformaldehyde in PBS for 20 min at room temperature. Cells were permeabilized in 0.2% Triton X-100 for 15 min before blocking for 30 min with 10% serum-containing blocker (ThermoFisher). Coverslips were then incubated with primary antibody overnight […] in a humidified chamber, followed by incubation with a secondary antibody for 1 hour. Primary and secondary antibodies were diluted in blocking buffer, and […]. Coverslips were mounted using Prolong Gold Antifade Mounting Medium with DAPI (ThermoFisher). Imaging was performed using a Hamamatsu ORCA-Flash4.0 V3 Digital CMOS camera and Nikon Ti-E Motorized Microscope 2000U microscope with Plan Apo Lamda 60×/1.40 Oil Ph3 DM objectives. Images were captured with Nikon Elements Acquisition Software. All scoring was performed under blinded conditions. Three independent experiments with three biological replicates per group were performed.

B16F10 melanomas = assay: Flow cytometry of tumor-infiltrating immune cells, B16F10 melanomas treated with CARM1 inhibitor; type: in vivo, mouse
Excerpt: FIG. 15A illustrates changes in tumor microenvironment induced by monotherapy or combination therapy with CARM1 inhibitor, showing treatment of mice with B16F10 melanomas with CARM1 inhibitor or vehicle control. Mice also received isotype control, CTLA-4 or PD-1 mAbs, as indicated (n=5 mice/group). Representative flow plots of CD8 T cells gated on live/singlets/CD45+/CD3+ cells from indicated groups are shown on left. Quantification of CD8 T cells is shown as percentage of CD3+ T cells (middle) or number per gram of tumor (right) for the indicated treatment groups.
FIG. 15B illustrates changes in tumor microenvironment induced by monotherapy or combination therapy with CARM1 inhibitor, showing number of intra-tumoral granzyme B+CD8+ T cells per gram of tumor for the indicated treatment groups (n=5 mice/group). Representative flow plots are shown on left.
FIG. 15C illustrates changes in tumor microenvironment induced by monotherapy or combination therapy with CARM1 inhibitor, showing number of intra-tumoral IL2+CD8+ T cells per gram of tumor for the indicated treatment groups (n=5 mice/group).
FIG. 15D illustrates changes in tumor microenvironment induced by monotherapy or combination therapy with CARM1 inhibitor, showing number of intra-tumoral IFNγ+CD8+ T cells per gram of tumor for the indicated treatment groups (n=5 mice/group). Representative flow plots are shown on left.
FIG. 15E illustrates changes in tumor microenvironment induced by monotherapy or combination therapy with CARM1 inhibitor, showing number of intra-tumoral perforin+CD8+ T cells per gram of tumor for the indicated treatment groups (n=5 mice/group).
FIG. 15F illustrates changes in tumor microenvironment induced by monotherapy or combination therapy with CARM1 inhibitor, showing analysis of intra-tumoral PD1+CD8+ T cells (quantified as percentage of CD8+ T cells) for the indicated treatment groups (n=5 mice/group). Representative flow plots (left) and quantification of PD-1 expression as percentage of CD8 T cells (middle) or MFI (right) are shown.
FIG. 16A illustrates changes in tumor microenvironment induced by monotherapy or combination therapy with CARM1 inhibitor, showing treatment of mice with B16F10 melanomas with CARM1 inhibitor or vehicle control. Mice also received isotype control, CTLA-4 or PD-1 mAbs, as indicated (n=5 mice/group). Quantification of CD4+ T cells (number per gram of tumor) for the indicated treatment groups.
FIG. 16B illustrates changes in tumor microenvironment induced by monotherapy or combination therapy with CARM1 inhibitor, showing quantification of IFNγ+ cells (as percentage of CD4+ T cells) for the indicated treatment groups.
FIG. 16C illustrates changes in tumor microenvironment induced by monotherapy or combination therapy with CARM1 inhibitor, showing quantification of FoxP3+ Treg cells (as percentage of CD4+ T cells) for the indicated treatment groups.
FIG. 16D illustrates changes in tumor microenvironment induced by monotherapy or combination therapy with CARM1 inhibitor, showing quantification of the CD8/FoxP3 Treg ratio for the indicated treatment groups.
FIG. 16E illustrates changes in tumor microenvironment induced by monotherapy or combination therapy with CARM1 inhibitor, showing number of intra-tumoral NK cells (left), dendritic cells (live, singlet, CD45+CD3−F4/80-CD11c+ MHCII^hi) (middle) and macrophages (live, singlet, CD45+CD3−F4/80+) (right) calculated per gram of tumor.
Inhibitor treatment was performed for 14 days because limited quantities of the compound were available.
Tumors were excised on day 18 following tumor cell inoculation and cut into small pieces using sterile scalpels in serum-free RPMI 1640 media (ThermoFisher #11875093). […]

[2] = all three CARM1 inhibitor treatment groups
[3] = combined with PD-1 or CTLA-4 mAbs

## CNC[C@@H](O)COc1ccc(Cl)c(-c2nc(-c3c(C)noc3C)c(C)c(N3CC4(CCN(C(=O)OC)CC4)C3)n2)c1 (stereo in doubt) [EZM2302]
B16F10 cells
  interferon stimulated gene (ISG) expression / mRNA levels: induced up regulation of the ISGs expression; also recorded: significantly increased the mRNA levels of these ISGs
[1]
  expression of ISGs in human breast and melanoma cancer cell lines: induced the expression of a similar set of ISGs
B16F10 tumor cells
  γH2AX foci: induced γH2AX foci accumulation
B16F10 melanomas; [2]
  number of CD8 T cells (per gram of tumor) that expressed granzyme B, IL-2, IFNγ, and perforin: striking increase
  tumor-infiltrating NK cells: increased
B16F10 melanomas; any of the treatment groups
  macrophage numbers: no changes in macrophage numbers
B16F10 melanomas; [3]
  CD8 T cell infiltration: even higher
  cDC1 cells: increased
  tumor-infiltrating NK cells: highest
B16F10 melanomas; compared to vehicle control group
  PD-1 expression by CD8 T cells: reduced
B16F10 melanomas; monotherapy
  CD8 T cell infiltration: substantially increased
B16F10 melanomas; mouse, in vivo
  number of tumor-infiltrating CD4 T cells or FoxP3+ Tregs: did not change

Reference: US20230201166A1, “METHODS FOR TREATING CANCER BY INHIBITING CARM1” (DANA-FARBER CANCER INSTITUTE, INC., priority 2020, published 2023)
